Reference: patent publication US20240182945A1, “PRODUCTS FOR REGULATION OF EUKARYOTIC AND MICROBIAL CELLS GROWTH” (priority 2021, published 2024)

Columns and labels:
[1] = test system: S.aureus (PP) and MM in sputum from children with pneumonia; experiment: Degree of eradication of PP and MM on Columbia agar with antibiotic at concentrations achievable at the site of infection; format: cell-based; parameters: key to Degree of primary pathogen eradication, evaluation of ABEPP: % of primary pathogen (PP) eliminated
Experimental: We next tried to select antibiotics based on building a probability model. Antibiotic efficacy was evaluated based on a novel parameters: • ABEPPMM100—antibiotic concentration that is required for the elimination of 100% “complex” PP+MM. • ABEPPMM99—antibiotic concentration that is required for the elimination of 99% “complex” PP+MM.
ABEPPMM90—antibiotic concentration that is required for the elimination of 90% “complex” PP+MM.
ABEPPMM50—antibiotic concentration that is required for the elimination of 50% “complex” PP+MM.
ABEPP100—antibiotic concentration that affecting on “complex” PP+MM is required for the elimination of 100% PP.
ABEPP99—antibiotic concentration that affecting on “complex” PP+MM is required for the elimination of 99% PP.
ABEPP90—antibiotic concentration that affecting on “complex” PP+MM is required for the elimination of 90% PP.
ABEPP50—antibiotic concentration that affecting on “complex” PP+MM is required for the elimination of 50% PP.
We used sputum from children with pneumonia, with S.aureus as confirmed PP. Patient 1—child • Patient 2—child • Patient 3—child

[2] = 3 h; cited from earlier work
[3] = test system: Pseudomonas aeruginosa; settings: cited from earlier work
[4] = test system: P. aeruginosa; experiment: Growth of primary pathogen alone on antibiotic-supplemented Columbia agar; format: cell-based; settings: Bacterial set #3; Ceftazidime (2 μg/mL); Columbia agar with erythrocytes 5%, 24 h at 37 C
Experimental: Four sputum samples from patients with lung infections were used. Pure bacterial culture of each microorganisms was obtained by routine microbiological methods.
In this case this antibiotic at MIC of 16 ug/mL was used in the following studies. PP alone, or Microbial Modulators (MM) alone or the original sputum were plated on the wells of 24 well plate filled with nutrient Columbia agar supplemented with erythrocytes 5% and supplemented with antibiotics taken as MIC determined against PP, but not more than 16 μg/mL and incubated 24 h at 37 C.

[5] = test system: S. aureus; experiment: Growth of microbial modulator alone on antibiotic-supplemented Columbia agar; format: cell-based; settings: Bacterial set #3; Ceftazidime (2 μg/mL); Columbia agar with erythrocytes 5%, 24 h at 37 C
[6] = test system: B. thailandensis; format: cell-based; settings: Bacterial set #3; Ceftazidime (2 μg/mL); Columbia agar with erythrocytes 5%, 24 h at 37 C
[7] = test system: MIX—PP +BM (P. aeruginosa with microbial modulators); experiment: Growth of mix PP + MM (original sputum) on antibiotic-supplemented Columbia agar; format: cell-based; settings: Bacterial set #3; Ceftazidime (2 μg/mL); Columbia agar with erythrocytes 5%, 24 h at 37 C
[8] = test system: bacteria of sputum from patients with lung diseases; experiment: Sputum plated on 24-well plates with antibiotics at Cmax or C0-4 h, Algorithm #1 or #2; format: cell-based; note: key: '+'—presence of bacterial growth, antibiotic ineffective; '−'—absence of bacterial growth, antibiotic effective
Experimental: Pathological material (sputum) from patients with lung diseases was plated into wells of 24-well plates filled with a nutrient medium supplemented with erythrocytes 5%, to which antibiotics were added taken at different concentrations.
Group #1—antibiotics were taken at concentrations close to a maximum (peak) concentration achievable at the site of infection Cmax
Algorithm #1. Lab technician, analyzed the appearance of bacterial growth by comparing the signs of bacterial growth in each well supplemented with antibiotic(s) at certain timepoint, with the signs of bacterial growth in the same well at previous time point(s).
Algorithm #2. Lab technician analyzed the appearance of bacterial growth by comparing the signs of bacterial growth in each well supplemented with antibiotic(s) with bacterial growth in antibiotic-free control

[9] = test system: bacteria of sputum from patients with lung diseases; experiment: Standard antibiotic susceptibility study using the microbroth dilution method (Algorithm #3); format: cell-based; note: key: '+'—presence of bacterial growth, antibiotic ineffective; '−'—absence of bacterial growth, antibiotic effective
Description: Algorithm #3—Standard antibiotic susceptibility study using the microbroth dilution method.

[10] = Patient 1, C0-1 h, 24 h of growth
[11] = Patient 1, C0-2 h, 24 h of growth
[12] = Patient 1, C0-3 h, 24 h of growth
[13] = Patient 1, C0-4 h, 24 h of growth
[14] = Patient 1, C0-6 h, 24 h of growth
[15] = Patient 1, C0-8 h, 24 h of growth
[16] = Patient 1, C0-12 h, 24 h of growth
[17] = Patient 1, C0-24 h, 24 h of growth
[18] = Patient 1, C2-3 h, 24 h of growth
[19] = Patient 1, C3-4 h, 24 h of growth
[20] = Patient 1, C4-6 h, 24 h of growth
[21] = Patient 1, C6-8 h, 24 h of growth
[22] = Patient 1, C8-12 h, 24 h of growth
[23] = Patient 1, C12-24 h, 24 h of growth
[24] = Patient 1, Cmax × 2, 24 h of growth
[25] = Patient 2, C0-3 h, 24 h of growth
[26] = Patient 2, C0-4 h, 24 h of growth
[27] = Patient 2, C0-6 h, 24 h of growth
[28] = Patient 2, C0-8 h, 24 h of growth
[29] = Patient 2, C0-12 h, 24 h of growth
[30] = Patient 2, C0-24 h, 24 h of growth
[31] = Patient 2, C3-4 h, 24 h of growth
[32] = Patient 2, C4-6 h, 24 h of growth
[33] = Patient 2, C6-8 h, 24 h of growth
[34] = Patient 2, C8-12 h, 24 h of growth
[35] = Patient 2, C12-24 h, 24 h of growth
[36] = Patient 3, C0-3 h, 24 h of growth
[37] = Patient 3, C0-4 h, 24 h of growth
[38] = Patient 3, C0-6 h, 24 h of growth
[39] = Patient 3, C0-8 h, 24 h of growth
[40] = Patient 3, C0-12 h, 24 h of growth
[41] = Patient 3, C0-24 h, 24 h of growth
[42] = Patient 3, C3-4 h, 24 h of growth
[43] = Patient 3, C4-6 h, 24 h of growth
[44] = Patient 3, C6-8 h, 24 h of growth
[45] = Patient 3, C8-12 h, 24 h of growth
[46] = Patient 3, C12-24 h, 24 h of growth

C[C@H]1COc2c(N3CCN(C)CC3)c(F)cc3c(=O)c(C(=O)O)cn1c23 [Levofloxacin]
Degree of primary pathogen eradication, evaluation of ABEPP [1, 10]: 100
Degree of primary pathogen eradication, evaluation of ABEPPMM [1, 10]: 99
Degree of primary pathogen eradication, evaluation of ABEPP [1, 11]: 99
Degree of primary pathogen eradication, evaluation of ABEPPMM [1, 11]: 99
Degree of primary pathogen eradication, evaluation of ABEPP [1, 12]: 90
Degree of primary pathogen eradication, evaluation of ABEPPMM [1, 12]: 90
Degree of primary pathogen eradication, evaluation of ABEPP [1, 13]: 100
Degree of primary pathogen eradication, evaluation of ABEPPMM [1, 13]: 100
Degree of primary pathogen eradication, evaluation of ABEPP [1, 14]: 100
Degree of primary pathogen eradication, evaluation of ABEPPMM [1, 14]: 100
Degree of primary pathogen eradication, evaluation of ABEPP [1, 15]: 50
Degree of primary pathogen eradication, evaluation of ABEPPMM [1, 15]: 50
Degree of primary pathogen eradication, evaluation of ABEPP [1, 16]: 50
Degree of primary pathogen eradication, evaluation of ABEPPMM [1, 16]: 50
Degree of primary pathogen eradication, evaluation of ABEPP [1, 17]: 0
Degree of primary pathogen eradication, evaluation of ABEPPMM [1, 17]: 0
Degree of primary pathogen eradication, evaluation of ABEPP [1, 18]: 90
Degree of primary pathogen eradication, evaluation of ABEPPMM [1, 18]: 90
Degree of primary pathogen eradication, evaluation of ABEPP [1, 19]: 99
Degree of primary pathogen eradication, evaluation of ABEPPMM [1, 19]: 99
Degree of primary pathogen eradication, evaluation of ABEPP [1, 20]: 100
Degree of primary pathogen eradication, evaluation of ABEPPMM [1, 20]: 100
Degree of primary pathogen eradication, evaluation of ABEPP [1, 21]: 90
Degree of primary pathogen eradication, evaluation of ABEPPMM [1, 21]: 90
Degree of primary pathogen eradication, evaluation of ABEPP [1, 22]: 50
Degree of primary pathogen eradication, evaluation of ABEPPMM [1, 22]: 50
Degree of primary pathogen eradication, evaluation of ABEPP [1, 23]: 50
Degree of primary pathogen eradication, evaluation of ABEPPMM [1, 23]: 50
Degree of primary pathogen eradication, evaluation of ABEPP [1, 24]: 100
Degree of primary pathogen eradication, evaluation of ABEPPMM [1, 24]: 99
Degree of primary pathogen eradication, evaluation of ABEPP [1, 25]: 50
Degree of primary pathogen eradication, evaluation of ABEPPMM [1, 25]: 50
Degree of primary pathogen eradication, evaluation of ABEPP [1, 26]: 50
Degree of primary pathogen eradication, evaluation of ABEPPMM [1, 26]: 50
Degree of primary pathogen eradication, evaluation of ABEPP [1, 27]: 50
Degree of primary pathogen eradication, evaluation of ABEPPMM [1, 27]: 50
Degree of primary pathogen eradication, evaluation of ABEPP [1, 28]: 50
Degree of primary pathogen eradication, evaluation of ABEPPMM [1, 28]: 50
Degree of primary pathogen eradication, evaluation of ABEPP [1, 29]: 50
Degree of primary pathogen eradication, evaluation of ABEPPMM [1, 29]: 0
Degree of primary pathogen eradication, evaluation of ABEPP [1, 30]: 0
Degree of primary pathogen eradication, evaluation of ABEPPMM [1, 30]: 0
Degree of primary pathogen eradication, evaluation of ABEPP [1, 31]: 50
Degree of primary pathogen eradication, evaluation of ABEPPMM [1, 31]: 50
Degree of primary pathogen eradication, evaluation of ABEPP [1, 32]: 50
Degree of primary pathogen eradication, evaluation of ABEPPMM [1, 32]: 50
Degree of primary pathogen eradication, evaluation of ABEPP [1, 33]: 50
Degree of primary pathogen eradication, evaluation of ABEPPMM [1, 33]: 50
Degree of primary pathogen eradication, evaluation of ABEPP [1, 34]: 50
Degree of primary pathogen eradication, evaluation of ABEPPMM [1, 34]: 0
Degree of primary pathogen eradication, evaluation of ABEPP [1, 35]: 0
Degree of primary pathogen eradication, evaluation of ABEPPMM [1, 35]: 0
Degree of primary pathogen eradication, evaluation of ABEPP [1, 36]: 50
Degree of primary pathogen eradication, evaluation of ABEPPMM [1, 36]: 50
Degree of primary pathogen eradication, evaluation of ABEPP [1, 37]: 50
Degree of primary pathogen eradication, evaluation of ABEPPMM [1, 37]: 0
Degree of primary pathogen eradication, evaluation of ABEPP [1, 38]: 0
Degree of primary pathogen eradication, evaluation of ABEPPMM [1, 38]: 0
Degree of primary pathogen eradication, evaluation of ABEPP [1, 39]: 0
Degree of primary pathogen eradication, evaluation of ABEPPMM [1, 39]: 0
Degree of primary pathogen eradication, evaluation of ABEPP [1, 40]: 0
Degree of primary pathogen eradication, evaluation of ABEPPMM [1, 40]: 0
Degree of primary pathogen eradication, evaluation of ABEPP [1, 41]: 0
Degree of primary pathogen eradication, evaluation of ABEPPMM [1, 41]: 0
Degree of primary pathogen eradication, evaluation of ABEPP [1, 42]: 50
Degree of primary pathogen eradication, evaluation of ABEPPMM [1, 42]: 50
Degree of primary pathogen eradication, evaluation of ABEPP [1, 43]: 0
Degree of primary pathogen eradication, evaluation of ABEPPMM [1, 43]: 0
Degree of primary pathogen eradication, evaluation of ABEPP [1, 44]: 0
Degree of primary pathogen eradication, evaluation of ABEPPMM [1, 44]: 0
Degree of primary pathogen eradication, evaluation of ABEPP [1, 45]: 0
Degree of primary pathogen eradication, evaluation of ABEPPMM [1, 45]: 0
Degree of primary pathogen eradication, evaluation of ABEPP [1, 46]: 0
Degree of primary pathogen eradication, evaluation of ABEPPMM [1, 46]: 0
lung concentration after 3 h of administration [2]: 4.7 µg/mL

CC1=C(C(=O)O)N2C(=O)[C@@H](NC(=O)[C@H](N)c3ccccc3)[C@H]2SC1 [Cephalexin]
activity against Pseudomonas aeruginosa according to standard micro-broth dilution method [3]: not active

CC(C)(O/N=C(\C(=O)N[C@@H]1C(=O)N2C(C(=O)[O-])=C(C[n+]3ccccc3)CS[C@H]12)c1csc(N)n1)C(=O)O [Ceftazidime]
microbial growth, PA (PP alone) [4]: +
microbial growth, SA (BM alone) [5]: +
microbial growth, BT (BM alone) [6]: +
Presence of PP in Mix (PP + MM) [7]: −
ATB efficacy ([8]; Algorithm #1, antibiotic at C0-4 h): +
ATB efficacy ([8]; Algorithm #1, antibiotic at Cmax): +
ATB efficacy ([8]; Algorithm #2, antibiotic at C0-4 h): +
ATB efficacy ([8]; Algorithm #2, antibiotic at Cmax): +
ATB efficacy [9]: +
